Data reported in PMC4964386, “Synthesis, Characterization, and Cytotoxicity of the First Oxaliplatin Pt(IV) Derivative Having a TSPO Ligand in the Axial Position” (International Journal of Molecular Sciences, 2016).
Where two headings read alike, the source gives them in different places.

Assays:
[1] = test system: LoVo cells; experiment: Cell cycle analysis by flow cytometry (propidium iodide); assay type: cell-based, human; conditions: for Perturbation of cell cycle progression: 24 h treatment at IC50 concentrations (compound 2 at 100 µM), FCM
Protocol: Figure 9 Flow cytometric analysis of LoVo cells stained with propidium iodide after 24 h of treatment with test compounds.
Then, the experimental procedure described in our previous work was performed.

[2] = test system: human MCF7 breast carcinoma; experiment: MTT cell proliferation assay, MCF7; assay type: cell-based; conditions: MCF7, 72 h treatment; for IC50: MTT, read-out: IC50 (concentration inducing 50% cell survival inhibition)
Protocol: (§1) The cytotoxicity of the compounds, expressed as IC50 values after 72 h incubation (except in two cases where it is expressed as the % of cell viability at the maximum concentration tested of 100 μM) are reported in Table 3.
(§2) Human MCF7 breast carcinoma, human U87 glioblastoma, human LoVo colon adenocarcinoma cell lines and C6 rat glioma cells were used. As recommended for these cell lines, the base medium used (EuroClone, Pero (MI), Italy) was RPMI for MCF7 cells, DMEM for U87 and C6 cells, and F-12/HAM for LoVo cells, enriched with fetal bovine serum (10%), penicillin (100 U/mL)/streptomycin (100 μg/mL) (1%) and glutamine 200 mM (1%) (EuroClone, Pero (MI), Italy). Cells were incubated at 37 °C under an atmosphere containing 5% CO2.
(§3) Determination of cell growth inhibition was performed on MCF7, U87 and LoVo cell lines, using the 3-[4,5-dimethylthiazol-2-yl]-2,5-diphenyltetrazoliumbromide (MTT) assay. The determination of the % of cell viability after treatment with the test compounds, was performed as described by Denora et al.. Briefly, cells were dispensed on 96 microtiter plates at a density of 5000 cells/well and, after overnight incubation, were exposed for 72 h to solutions of the compounds with concentration in the range 0.01–100 µM. After addition of MTT (10 μL of 0.5% w/v in PBS) and incubation for an additional 3 h at 37 °C, the cells were lysed with 100 μL of DMSO/EtOH 1:1 (v/v) solution, dispensed in each well. A PerkinElmer 2030 multilabel reader Victor TM X3 (manufactured for WALLAC Oy, Turku, Finland by PerkinElmer Singapore was used for the absorbance determination at 570 nm.

[3] = target: T1, TSPO (Rattus norvegicus, UniProt P16257); experiment: TSPO receptor binding assay, displacement of [3H]-PK 11195
T1 construct: Membranes from C6 rat glioma cells were prepared as described by Piccinonna et al; endogenous in cells; host or cells: C6 rat glioma cell membranes
Protocol: Membranes from C6 rat glioma cells were prepared as described by Piccinonna et al. with minor modifications. In brief, cells scraped in PBS and harvested, were then homogenized with a Brinkman Polytron (Kinematica AG, Münstertäler, Germany). After centrifugation at 37,000× g for 30 min at 4 °C the resulting pellet was resuspended in ice-cold 10 mM PBS and stored at −80 °C until use.

[4] = test system: human LoVo colon adenocarcinoma; experiment: MTT cell proliferation assay, LoVo; assay type: cell-based; conditions: 72 h treatment; for IC50: MTT, read-out: IC50 (concentration inducing 50% cell survival inhibition)
Protocol: as §1, §2, §3

[5] = test system: human U87 glioblastoma; experiment: MTT cell proliferation assay, U87; assay type: cell-based; conditions: U87, 72 h treatment, read-out: IC50 (concentration inducing 50% cell survival inhibition)
Protocol: as §1, §2, §3

[6] = Stability in physiological-like solution by 1H-NMR and HPLC; assay type: physicochemical
Protocol: The stability of 3 was investigated by ^1H-NMR spectroscopy in DMSO-d6/D2O (5:95, v/v) at pH 7.4 (2 mM phosphate buffer) and 37 °C. […] After 8 h of incubation we observed a decrease in intensity of the peaks of 3 and the concomitant increase of a new set of peaks, marked with ● in Figure 8b (H5, 8.09 ppm; H7, 7.44 ppm; H16/20 7.35 ppm), that was assigned to compound 2 by comparison with a spectrum of the TSPO ligand recorded in similar conditions.
An HPLC analysis of the sample was performed after 108 h incubation at 37 °C. […] No reduction of the Pt(IV) complex occurred under the conditions used in this experiment.
The sample was incubated at 37 °C in the dark and ^1H-NMR spectra recorded at different time intervals.
The NMR solution was further analyzed by HPLC analysis. Stationary phase: Waters Symmetry RP-C18 column, 5 μm, 4.6 × 250 mm, 100 Å. Mobile phase: phase A = water and phase B = Acetonitrile; isocratic elution 5% phase B for 5 min, linear gradient from 5% to 50% phase B in 10 min, isocratic elution 50% phase B for 7 min, linear gradient from 50% to 5% phase B in 2 min, isocratic elution 5% phase B for 6 min. Flow rate = 0.7 mL·min^−1. UV-visible detector set at 220 nm.

[7] = test system: LoVo colon cancer cells; experiment: Platinum cellular uptake by ICP-MS; assay type: cell-based, human
From the text: As already reported, oxaliplatin is a chemotherapeutic drug mainly used for the treatment of colorectal cancer, therefore, we extended our investigation only to LoVo cells. First we measured the intracellular accumulation of platinum by ICP-MS. […] Most likely, organic cation transporters (OCT) may facilitate the uptake of oxaliplatin [47] at short time exposure and then, after saturation, the passive diffusion of the most lipophilic compounds becomes prominent.
A Varian 820-MS ICP mass spectrometer (Varian Italia, Cernusco sul Naviglio (MI), Italy) was used to perform the inductively coupled plasma mass spectrometry (ICP-MS) analyses for the determination of the platinum cellular uptake in LoVo colon cancer cells. Cells were seeded in 60 mm tissue culture dishes at a density of 500,000 cells/dish and incubated at 37 °C in a humidified atmosphere with 5% CO2. […] The platinum content was determined by ICP-MS.

[8] = Homo sapiens, 100 µM (maximum concentration tested)
[9] = after 4 h treatment at IC50 concentration
[10] = after 24 h treatment at IC50 concentration

T1 sequence (P16257 whole entry): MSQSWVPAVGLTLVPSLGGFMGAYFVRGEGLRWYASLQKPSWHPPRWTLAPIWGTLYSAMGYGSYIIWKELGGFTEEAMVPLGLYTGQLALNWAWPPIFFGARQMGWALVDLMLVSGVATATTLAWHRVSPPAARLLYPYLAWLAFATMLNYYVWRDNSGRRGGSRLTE

What does the source list for CCCN(CCC)C(=O)Cc1c(-c2ccc(OCC(=O)O)cc2)nc2c(Cl)cc(Cl)cn12 [compound 2, 2-(4-(6,8-dichloro-3-(2-(dipropylamino)-2-oxoethyl)imidazo[1,2-a]pyridin-2-yl)phenoxy)acetic acid]?
Perturbation of cell cycle progression [1]: induced a sub-G0/G1 cell population; viability at 100 µM [2, 8]: 53%; IC50 [3]: 2.12 ± 0.1 nM; viability at 100 µM [4, 8]: 65%; IC50 ([5]; Homo sapiens): 70.2 ± 0.3 µM

For CCCN(CCC)C(=O)Cc1c(-c2ccc(OCC(=O)OCC[O][Pt]3([Cl])[O]C(=O)C(=O)[O]3)cc2)nc2c(Cl)cc(Cl)cn12.N[C@@H]1CCCC[C@H]1N [compound 3, cis,trans,cis-[Pt(ethanedioato)Cl{2-(2-(4-(6,8-dichloro-3-(2-(dipropylamino)-2-oxoethyl)imidazo[1,2-a]pyridin-2-yl)phenoxy)acetate)-ethanolato}(1R,2R-DACH)]], which Induction of apoptosis ([1]; 24 h treatment) is on record?
The Induction of apoptosis was “did not induce apoptosis”.

And the “Perturbation of cell cycle progression” value [1]?
The value was “no notable changes compared to oxaliplatin”.

And the “Half-life of the complex (hydrolysis of ester bond)” value ([6]; DMSO-d6/D2O (5:95, v/v), pH 7.4 (2 mM phosphate buffer), 37 °C, 52 μM, from NMR)?
The value was “approximately 24 h”.

What about the “Time after which signals disappeared completely” value ([6]; DMSO-d6/D2O (5:95, v/v), pH 7.4 (2 mM phosphate buffer), 37 °C, 1H-NMR) of the same molecule?
Its value is 108 h.

What about the “Degradation behaviour in physiological-like conditions” value ([6]; pH 7.4, 37 °C, HPLC after 108 h incubation) of the same molecule?
The value was “slow hydrolysis of the ester bond”.

And the IC50 [2]?
The IC50 was 14.1 ± 0.1 µM.

And the IC50 ([3]; displacement of [3H]-PK 11195 (0.7 nM), Table 2: rat cerebral cortex, method: C6 rat glioma cell membranes, 90 min, 25 °C, read-out: IC50 TSPO)?
Its IC50 is 18.6 ± 0.84 nM.

What about the IC50 ([4]; listed as cis,trans,cis-[Pt(ethanedioato)Cl{2-(2-(4-(6,8-dichloro-3-(2-(dipropylamino)-2-o))))) of the same molecule?
The IC50 was 2310 nM.

And the IC50 [4]?
Its IC50 is 2300 ± 100 nM.

And the IC50 [5]?
Its IC50 is 16.1 ± 0.3 µM.

What about the “Uptake by LoVo Cells (ppb of Pt)” value [7, 9] of the same molecule?
Its value is 0.33 ± 0.02 ppb of Pt.

And the “Uptake by LoVo Cells (ppb of Pt)” value [7, 10]?
Its value is 0.77 ± 0.02 ppb of Pt.

Which results are given for O=C1[O][Pt]2([Cl])([O]CCO)([NH]C3CCCCC3[NH]2)[O]C1=O (mixture of isomers) [compound 1, Cis,trans,cis-[Pt(ethanedioato)Cl(2-hydroxyethanolato)(1R,2R-DACH)]]?
Perturbation of cell cycle progression [1]: no notable changes compared to oxaliplatin; IC50 [2]: 8.2 ± 0.4 µM; IC50 [4]: 2500 ± 500 nM; IC50 [5]: 9.1 ± 0.4 µM; Uptake by LoVo Cells (ppb of Pt) [7, 9]: 0.18 ± 0.01 ppb of Pt; Uptake by LoVo Cells (ppb of Pt) [7, 10]: 0.59 ± 0.03 ppb of Pt

What does the source list for O=C1[O][Pt-2]2([NH2+]C3CCCC[C@H]3[NH2+]2)[O]C1=O (stereo in doubt) [Oxaliplatin, trans-1R,2R-diaminocyclohexane(oxalato)platinum(II)]?
Perturbation of cell cycle progression [1]: delayed the S-phase and started to accumulate cells in G2/M-phase and G0/G1 phase; IC50 [4]: 460 ± 10 nM; IC50 [5]: 3.1 ± 0.2 µM; Uptake by LoVo Cells (ppb of Pt) [7, 9]: 0.24 ± 0.04 ppb of Pt; Uptake by LoVo Cells (ppb of Pt) [7, 10]: 0.38 ± 0.01 ppb of Pt
